Experiment: xn = mol fraction of the nth substance listed
Settings: 298.15 K, 101 kPa

O + CC[NH+](CC)CC.O=S(=O)([O-])O
x1 = 1
Settings | speed of sound [m/s] | viscosity [mPa·s]
– | 1496 | 0.89

O + CC(=O)[O-].CC[NH2+]CC
Settings | speed of sound [m/s]
x1 = 1 | 1496

CC[NH+](CC)CC.O=S(=O)([O-])O + O
Settings | speed of sound [m/s] | viscosity [mPa·s]
x2 = 0 | 1874 | 235
x2 = 0.1228 | 1828 | 210
x2 = 0.2209 | 1819 | 195
x2 = 0.3679 | 1836 | 176
x2 = 0.4728 | 1844 | 162
x2 = 0.5147 | 1843 | 156
x2 = 0.6613 | 1795 | 129
x2 = 0.7011 | 1772 | 120
x2 = 0.7866 | 1702 | 95.2
x2 = 0.8075 | 1677 | 87.3
x2 = 0.869 | 1616 | 63.1
x2 = 0.9091 | 1581 | 48.8
x2 = 0.9432 | 1542 | 29.5
x2 = 0.9627 | 1526 | 19.9
x2 = 0.9743 | 1507 | 14.14

C[NH+](C)C.O=S(=O)([O-])O + O
Settings | speed of sound [m/s] | viscosity [mPa·s]
x2 = 0 | 1564 | 5.1
x2 = 0.1369 | 1553 | 4.86
x2 = 0.1942 | 1555 | 4.74
x2 = 0.2919 | 1558 | 4.53
x2 = 0.3723 | 1562 | 4.34
x2 = 0.4691 | 1565 | 4.05
x2 = 0.5219 | 1564 | 3.88
x2 = 0.6073 | 1556 | 3.54
x2 = 0.6734 | 1541 | 3.22
x2 = 0.7012 | 1531 | 3.08
x2 = 0.7878 | 1502 | 2.58
x2 = 0.8724 | 1472 | 2.01
x2 = 0.9027 | 1470 | 1.76
x2 = 0.9352 | 1466 | 1.49

CC[NH2+]CC.O=S(=O)([O-])O + O
Settings | speed of sound [m/s] | viscosity [mPa·s]
x2 = 0.1212 | 1426 | 30.4
x2 = 0.2183 | 1429 | 29.6
x2 = 0.2979 | 1433 | 30.1
x2 = 0.3644 | 1436 | 31
x2 = 0.4207 | 1437 | 31.3
x2 = 0.5476 | 1443 | 32.3
x2 = 0.6578 | 1441 | 31.4
x2 = 0.6979 | 1440 | 30.2
x2 = 0.7314 | 1439 | 28.8
x2 = 0.7841 | 1437 | 26
x2 = 0.8051 | 1438 | 24.6
x2 = 0.8673 | 1439 | 19.3
x2 = 0.9079 | 1444 | 15.14
x2 = 0.9233 | 1448 | 13.51
x2 = 0.9424 | 1454 | 11.06
x2 = 0.9622 | 1461 | 8.48
x2 = 0.9741 | 1468 | 6.19

O + CC[NH2+]CC.O=S(=O)([O-])O
x1 = 1
Settings | speed of sound [m/s] | viscosity [mPa·s]
– | 1496 | 0.89

O + C[NH+](C)C.O=S(=O)([O-])O
x1 = 1
Settings | speed of sound [m/s] | viscosity [mPa·s]
– | 1496 | 0.89

CC(=O)[O-].C[NH+](C)C + O
Settings | speed of sound [m/s] | viscosity [mPa·s]
x1 = 0.0451 | 1499 | 1.199
x1 = 0.0651 | 1503 | 1.31
x1 = 0.0978 | 1504 | 1.5
x1 = 0.1283 | 1507 | 1.64
x1 = 0.1524 | 1510 | 1.75
x1 = 0.2133 | 1517 | 1.99
x1 = 0.3002 | 1525 | 2.24
x1 = 0.328 | 1527 | 2.31
x1 = 0.3943 | 1532 | 2.43
x1 = 0.4341 | 1534 | 2.48
x1 = 0.4797 | 1535 | 2.52
x1 = 0.5325 | 1537 | 2.56
x1 = 0.6292 | 1538 | 2.61
x1 = 0.7094 | 1539 | 2.62
x1 = 0.7556 | 1540 | 2.63
x1 = 0.9278 | 1542 | 2.69
x1 = 1 | 1544 | 2.76

CC(=O)[O-].CC[NH2+]CC + O
Settings | speed of sound [m/s]
x2 = 0 | 1608
x2 = 0.0881 | 1602
x2 = 0.1637 | 1599
x2 = 0.2293 | 1598
x2 = 0.2866 | 1597
x2 = 0.3373 | 1596
x2 = 0.459 | 1594
x2 = 0.5741 | 1589
x2 = 0.6182 | 1585
x2 = 0.6562 | 1581
x2 = 0.7179 | 1572
x2 = 0.7433 | 1568
x2 = 0.8208 | 1551
x2 = 0.8735 | 1538
x2 = 0.8941 | 1532
x2 = 0.9197 | 1524
x2 = 0.9468 | 1516
x2 = 0.9634 | 1510
